US20250290117A1, “MOLECULAR PHENOTYPIC ANTIMICROBIAL SUSCEPTIBILITY TESTING” (priority 2024, published 2025)

What was measured:
Format in all cases: cell-based
Acinetobacter baumannii [1] = assay: Molecular phenotypic antimicrobial susceptibility test (extraction/DNA purification prior to PCR)
Procedure: Detection of Molecular Phenotypic Antimicrobial Susceptibility. Disclosed herein are the methods for the detection of phenotypic antimicrobial susceptibility via molecular methods. The present invention describes how a specimen 100 with a known microbial load is incubated and then exposed to a panel of antimicrobial agents to determine sensitivity (prevention of growth) or resistance (allowance of growth) to the specific antimicrobial agents tested utilizing molecular methods. Sample Collection. Specimens 100 are collected from patients using sterile collection processes that are employed in routine clinical care. Specimens are transported to the testing facility in boric acid preservative. […] The specimens 100 are put through a pathogen identification process using PCR technology (e.g., using the first sample 104). The process for pathogen isolation includes steps of harvesting the pathogen (e.g., via centrifugation), isolating pathogen DNA via a DNA isolation and/or purification kit, and performing PCR on the pathogen DNA via PCR components (e.g., primers, enzymes, buffers) as would be known to the skilled artisan. Simultaneously, an additional aliquot of the same specimen (e.g., the second sample 108) is placed with liquid culture media and incubated for 4-6 hours. This aliquot is used for antimicrobial susceptibility testing if indicated based on the pathogen detection results. […] Specimens 100 with lower pathogen loads could also be utilized in the antibiotic susceptibility phase of testing with or without a longer incubation period. […] Antimicrobial solutions are prepared at known concentrations. The specific antimicrobials and their concentrations are selected based on the pathogen of interest and the described antimicrobial resistance breakpoints for that specimen pathogen and antimicrobial combination. These antimicrobials have been selected based on those commonly utilized by healthcare providers in routine clinical care for the specific type of suspected infection. The number and types of antimicrobials utilized can be customized based on the infection source, pathogen detected, patient-specific factors such as allergies or other health conditions (e.g., chronic kidney disease or concurrent medication use), or healthcare provider preferences such as antimicrobial availability or cost. The antimicrobial solutions are prepared in liquid culture media (such as Muller Hinton Broth) to achieve the desired antimicrobial concentration and are then stored at −80° C. until use. For a given specimen, each antimicrobial is tested at a single or multiple antimicrobial concentration(s) which is its established breakpoints for sensitivity. The antimicrobial solutions are prepared and plated out for each specific pathogen. This allows ease of use on the day of testing after defrosting the plate 112. Table 1, which illustrates the results of molecular phenotypic antimicrobial susceptibility testing when more than one organism is present in the source specimen, provides an example of an antimicrobial plate 112 prepared for this purpose. Of note, control wells containing only culture media are present on all plates 112. This allows for evaluation of pathogen load when no antimicrobial is present. Specimen Exposure to Antimicrobial Agents. The 1 mL aliquot of the specimen 100 previously mixed with culture media and incubated is obtained. Using optical density measurements as a guide, the specimen 100 is diluted to 0.5 McFarland. The specimen 100 is then placed into the previously prepared antimicrobial susceptibility testing plate 112. Each plate 112 is prepared for a single specimen 100 for a specified pathogen based on its detection. For example, if the specimen 100 has more than one pathogen detected that needs different antimicrobial concentrations for exposure due to different minimum inhibitory concentration breakpoints for one or more organisms, then more than one antimicrobial exposure plate 112 may be needed. […]

Acinetobacter baumannii [2] = assay: Traditional culture-based antimicrobial susceptibility test
Source text: Table 2 illustrates the results of an example antimicrobial agent susceptibility test of the current application versus a traditional culture-based antimicrobial agent susceptibility test for […], in accordance with one or more embodiments of the disclosure. This specimen underwent extraction and/or DNA purification prior to PCR. As in Table 1, the results of the test of the current application are similar to the results from the traditional test.
(§1) Result Reporting to Healthcare Providers. The results from the antimicrobial exposure are reported to the ordering healthcare provider. This information can be utilized by the healthcare provider when selecting an antimicrobial regimen for their individual patient based on these individual specimen results and patient specific factors. […] The current standard of care for antimicrobial susceptibility testing involves the growth, isolation, and exposure of pathogens to antimicrobials. This traditional culture and sensitivity process can take multiple days to obtain results, limiting the ability of healthcare providers to receive timely results to make actionable changes in patient care or management. Healthcare providers desire a method to obtain antimicrobial susceptibility results with quicker turn-around-time. This application discloses a molecular-based phenotypic antimicrobial susceptibility method which involves pathogen exposure to a panel of antimicrobial agents at their specified minimum inhibitory concentration breakpoints for sensitivity. This method allows for more timely antimicrobial susceptibility results.

pathogen of the specimen = assay: Traditional culture-based antimicrobial susceptibility test (comparison of Table 7); settings: E. coli isolate 1189
Procedure: as §1, with “Table 7 illustrates the results of an example antimicrobial agent susceptibility test of the current application versus a traditional culture-based antimicrobial agent susceptibility test at multiple incubation timepoints, in accordance with one or more embodiments of the disclosure. These specimens were tested with direct PCR (e.g., no extraction DNA purification step prior to PCR). […] Result” for “Result”

[3] = A. baumannii isolate 1, Ct at control (average) 18.811
[4] = A. baumannii isolate 1, at sensitive breakpoint
[5] = A. baumannii isolate 2, Ct at control (average) 18.763
[6] = A. baumannii isolate 2, at sensitive breakpoint
[7] = A. baumannii isolate 3, Ct at control (average) 18.799
[8] = A. baumannii isolate 3, at sensitive breakpoint
[9] = A. baumannii isolate 4, Ct at control (average) 18.061
[10] = A. baumannii isolate 4, at sensitive breakpoint
[11] = A. baumannii isolate 5, Ct at control (average) 18.191
[12] = A. baumannii isolate 5, at sensitive breakpoint

## CO/N=C(\C(=O)N[C@@H]1C(=O)N2C(C(=O)O)=C(CSc3nc(=O)c(=O)[nH]n3C)CS[C@H]12)c1csc(N)n1 [Ceftriaxone]
Acinetobacter baumannii [1]; [3]
  Ct at Sensitive Breakpoint: 16.497
Acinetobacter baumannii [1]; [4]
  Molecular Antimicrobial Susceptibility Result: Resistant
Acinetobacter baumannii [1]; [5]
  Ct at Sensitive Breakpoint: 19.075
Acinetobacter baumannii [1]; [6]
  Molecular Antimicrobial Susceptibility Result: Resistant
Acinetobacter baumannii [1]; [7]
  Ct at Sensitive Breakpoint: 19.667
Acinetobacter baumannii [1]; [8]
  Molecular Antimicrobial Susceptibility Result: Resistant
Acinetobacter baumannii [1]; [9]
  Ct at Sensitive Breakpoint: 18.774
Acinetobacter baumannii [1]; [10]
  Molecular Antimicrobial Susceptibility Result: Resistant
Acinetobacter baumannii [1]; [11]
  Ct at Sensitive Breakpoint: 18.571
Acinetobacter baumannii [1]; [12]
  Molecular Antimicrobial Susceptibility Result: Resistant
Acinetobacter baumannii [2]; A. baumannii isolate 1
  Traditional Culture Result: Resistant
Acinetobacter baumannii [2]; A. baumannii isolate 2
  Traditional Culture Result: Resistant
Acinetobacter baumannii [2]; A. baumannii isolate 3
  Traditional Culture Result: Resistant
Acinetobacter baumannii [2]; A. baumannii isolate 4
  Traditional Culture Result: Resistant
Acinetobacter baumannii [2]; A. baumannii isolate 5
  Traditional Culture Result: Resistant
Pathogen of the specimen
  Traditional Culture Result: Resistant

## Piperacillin/Tazobactam
Acinetobacter baumannii [1]; [3]
  Ct at Sensitive Breakpoint: 17.127
Acinetobacter baumannii [1]; [4]
  Molecular Antimicrobial Susceptibility Result: Resistant
Acinetobacter baumannii [1]; [5]
  Ct at Sensitive Breakpoint: 19.691
Acinetobacter baumannii [1]; [6]
  Molecular Antimicrobial Susceptibility Result: Resistant
Acinetobacter baumannii [1]; [7]
  Ct at Sensitive Breakpoint: 18.647
Acinetobacter baumannii [1]; [8]
  Molecular Antimicrobial Susceptibility Result: Resistant
Acinetobacter baumannii [1]; [9]
  Ct at Sensitive Breakpoint: 16.207
Acinetobacter baumannii [1]; [10]
  Molecular Antimicrobial Susceptibility Result: Resistant
Acinetobacter baumannii [1]; [11]
  Ct at Sensitive Breakpoint: 17.081
Acinetobacter baumannii [1]; [12]
  Molecular Antimicrobial Susceptibility Result: Resistant
Acinetobacter baumannii [2]; A. baumannii isolate 1
  Traditional Culture Result: Resistant
Acinetobacter baumannii [2]; A. baumannii isolate 2
  Traditional Culture Result: Resistant
Acinetobacter baumannii [2]; A. baumannii isolate 3
  Traditional Culture Result: Resistant
Acinetobacter baumannii [2]; A. baumannii isolate 4
  Traditional Culture Result: Resistant
Acinetobacter baumannii [2]; A. baumannii isolate 5
  Traditional Culture Result: Resistant
Pathogen of the specimen
  Traditional Culture Result: Sensitive

## C[C@H]1COc2c(N3CCN(C)CC3)c(F)cc3c(=O)c(C(=O)O)cn1c23 [Levofloxacin]
Acinetobacter baumannii [1]; [3]
  Ct at Sensitive Breakpoint: 17.268
Acinetobacter baumannii [1]; [4]
  Molecular Antimicrobial Susceptibility Result: Resistant
Acinetobacter baumannii [1]; [5]
  Ct at Sensitive Breakpoint: 19.405
Acinetobacter baumannii [1]; [6]
  Molecular Antimicrobial Susceptibility Result: Resistant
Acinetobacter baumannii [1]; [7]
  Ct at Sensitive Breakpoint: 18.253
Acinetobacter baumannii [1]; [8]
  Molecular Antimicrobial Susceptibility Result: Resistant
Acinetobacter baumannii [1]; [9]
  Ct at Sensitive Breakpoint: 18.709
Acinetobacter baumannii [1]; [10]
  Molecular Antimicrobial Susceptibility Result: Resistant
Acinetobacter baumannii [1]; [11]
  Ct at Sensitive Breakpoint: 19.052
Acinetobacter baumannii [1]; [12]
  Molecular Antimicrobial Susceptibility Result: Resistant

## CO[C@@]1(NC(=O)Cc2cccs2)C(=O)N2C(C(=O)O)=C(COC(N)=O)CS[C@@H]21 [Cefoxitin]
Pathogen of the specimen
  Traditional Culture Result: Resistant

## Ampicillin/Sulbactam
Acinetobacter baumannii [1]; [9]
  Ct at Sensitive Breakpoint: 19.447
Acinetobacter baumannii [1]; [10]
  Molecular Antimicrobial Susceptibility Result: Sensitive (Antimicrobial wells with pathogen load detected below the control wells (typically >2 cycle thresholds later) may be reported as Sensitive)
Acinetobacter baumannii [1]; [11]
  Ct at Sensitive Breakpoint: 19.682
Acinetobacter baumannii [1]; [12]
  Molecular Antimicrobial Susceptibility Result: Sensitive (Antimicrobial wells with pathogen load detected below the control wells (typically >2 cycle thresholds later) may be reported as Sensitive)
Acinetobacter baumannii [2]; A. baumannii isolate 4
  Traditional Culture Result: Sensitive
Acinetobacter baumannii [2]; A. baumannii isolate 5
  Traditional Culture Result: Sensitive

## C[C@@H](O)[C@H]1C(=O)N2C(C(=O)O)=C(S[C@@H]3CN[C@H](C(=O)N(C)C)C3)[C@H](C)[C@H]12 [Meropenem]
Acinetobacter baumannii [1]; [3]
  Ct at Sensitive Breakpoint: 18.123
Acinetobacter baumannii [1]; [4]
  Molecular Antimicrobial Susceptibility Result: Resistant
Acinetobacter baumannii [1]; [5]
  Ct at Sensitive Breakpoint: 19.761
Acinetobacter baumannii [1]; [6]
  Molecular Antimicrobial Susceptibility Result: Resistant
Acinetobacter baumannii [1]; [7]
  Ct at Sensitive Breakpoint: 18.077
Acinetobacter baumannii [1]; [8]
  Molecular Antimicrobial Susceptibility Result: Resistant
Acinetobacter baumannii [1]; [9]
  Ct at Sensitive Breakpoint: 17.553
Acinetobacter baumannii [1]; [10]
  Molecular Antimicrobial Susceptibility Result: Resistant
Acinetobacter baumannii [1]; [11]
  Ct at Sensitive Breakpoint: 20.173
Acinetobacter baumannii [1]; [12]
  Molecular Antimicrobial Susceptibility Result: Resistant
Acinetobacter baumannii [2]; A. baumannii isolate 1
  Traditional Culture Result: Resistant
Acinetobacter baumannii [2]; A. baumannii isolate 2
  Traditional Culture Result: Resistant
Acinetobacter baumannii [2]; A. baumannii isolate 3
  Traditional Culture Result: Resistant
Acinetobacter baumannii [2]; A. baumannii isolate 4
  Traditional Culture Result: Resistant
Acinetobacter baumannii [2]; A. baumannii isolate 5
  Traditional Culture Result: Resistant
Pathogen of the specimen
  Traditional Culture Result: Sensitive

## Gentamicin
Acinetobacter baumannii [1]; [9]
  Ct at Sensitive Breakpoint: 19.380
Acinetobacter baumannii [1]; [10]
  Molecular Antimicrobial Susceptibility Result: Sensitive (Antimicrobial wells with pathogen load detected below the control wells (typically >2 cycle thresholds later) may be reported as Sensitive)
Acinetobacter baumannii [1]; [11]
  Ct at Sensitive Breakpoint: 19.399
Acinetobacter baumannii [1]; [12]
  Molecular Antimicrobial Susceptibility Result: Sensitive (Antimicrobial wells with pathogen load detected below the control wells (typically >2 cycle thresholds later) may be reported as Sensitive)
Acinetobacter baumannii [2]; A. baumannii isolate 4
  Traditional Culture Result: Sensitive
Acinetobacter baumannii [2]; A. baumannii isolate 5
  Traditional Culture Result: Sensitive
Pathogen of the specimen
  Traditional Culture Result: Sensitive

## Cc1nnc(SCC2=C(C(=O)O)N3C(=O)[C@@H](NC(=O)Cn4cnnn4)[C@H]3SC2)s1 [Cefazolin]
Pathogen of the specimen
  Traditional Culture Result: Resistant

## CC1(C)S[C@@H]2[C@H](NC(=O)[C@H](N)c3ccccc3)C(=O)N2[C@H]1C(=O)O [Ampicillin]
Pathogen of the specimen
  Traditional Culture Result: Resistant

## Trimethoprim/Sulfamethoxazole [TMP/SMX]
Acinetobacter baumannii [1]; [3]
  Ct at Sensitive Breakpoint: 22.888
Acinetobacter baumannii [1]; [4]
  Molecular Antimicrobial Susceptibility Result: Sensitive (Antimicrobial wells with pathogen load detected below the control wells (typically >2 cycle thresholds later) may be reported as Sensitive)
Acinetobacter baumannii [1]; [5]
  Ct at Sensitive Breakpoint: 22.916
Acinetobacter baumannii [1]; [6]
  Molecular Antimicrobial Susceptibility Result: Sensitive (Antimicrobial wells with pathogen load detected below the control wells (typically >2 cycle thresholds later) may be reported as Sensitive)
Acinetobacter baumannii [1]; [7]
  Ct at Sensitive Breakpoint: 22.407
Acinetobacter baumannii [1]; [8]
  Molecular Antimicrobial Susceptibility Result: Sensitive (Antimicrobial wells with pathogen load detected below the control wells (typically >2 cycle thresholds later) may be reported as Sensitive)
Acinetobacter baumannii [1]; [9]
  Ct at Sensitive Breakpoint: 23.297
Acinetobacter baumannii [1]; [10]
  Molecular Antimicrobial Susceptibility Result: Sensitive (Antimicrobial wells with pathogen load detected below the control wells (typically >2 cycle thresholds later) may be reported as Sensitive)
Acinetobacter baumannii [1]; [11]
  Ct at Sensitive Breakpoint: 22.742
Acinetobacter baumannii [1]; [12]
  Molecular Antimicrobial Susceptibility Result: Sensitive (Antimicrobial wells with pathogen load detected below the control wells (typically >2 cycle thresholds later) may be reported as Sensitive)
Acinetobacter baumannii [2]; A. baumannii isolate 1
  Traditional Culture Result: Sensitive
Acinetobacter baumannii [2]; A. baumannii isolate 2
  Traditional Culture Result: Sensitive
Acinetobacter baumannii [2]; A. baumannii isolate 3
  Traditional Culture Result: Sensitive
Acinetobacter baumannii [2]; A. baumannii isolate 4
  Traditional Culture Result: Sensitive
Acinetobacter baumannii [2]; A. baumannii isolate 5
  Traditional Culture Result: Sensitive
Pathogen of the specimen
  Traditional Culture Result: Sensitive
